Results taken from patent publication US11400269B2, “Using alternating electric fields to increase permeability of the blood brain barrier” (Novocure GmbH, priority 2018, dated 2022).

How the values were obtained:
rat brain (BBB) [1] = assay: Evans Blue accumulation in rat brain after alternating electric fields; assay type: in vivo
Excerpt: A set of in vivo experiments on rats was also run to quantify the increase in vessel permeability caused by exposure to the alternating electric fields. These experiments used Evans Blue (EB) dye, which is an azo dye that has a very high affinity for serum albumin (molecule size ˜69 kDa). Because of its large molecule size, serum albumin will ordinarily not be able to get past the BBB.
This was accomplished by shaving each rat's head, positioning a first pair of capacitively coupled electrodes on the top and bottom of the rat's head, and positioning a second pair of capacitively coupled electrodes on the left and right sides of the rat's head. A 100 kHz AC voltage was then applied between the top and bottom electrodes for 1 second, followed by a 100 kHz AC voltage applied between the right and left electrodes for 1 second, in a repeating sequence.
Under the conditions indicated in Table 1 and for the times indicated on Table 1, EB was injected intravenously into the tail vein under anesthesia (Once injected, EB immediately binds to Albumin), and the EB was allowed to circulate for 2 hours in all cases. The following steps were then performed: (a) intracardiac perfusion with saline; (b) brains are sliced in four pieces with a brain slicer; (c) pieces were photographed to localize staining and weighted; (d) EB extraction after tissue homogenization with TCA 50% (1:3) and centrifuge and (e) EB quantification at 610 nm. Results are given as μg EB per g tissue.
During the experiment, two animals from group 2 and one animal from group 4 were excluded (disrupted treatment, failure to inject EB into the tail vein). There were no differences between the animals treated with alternating electric fields (groups 1 and 2) and therefore these animals were grouped together. Similarly, there were no differences between sham heat and control animals (groups 3 and 4) and therefore these animals were grouped together.
EB accumulation in these four specific sections was then measured. In addition, a computer simulation was performed to determine the field strength in each of these four sections. […]

rat brain (BBB) [2] = assay: DCE-MRI contrast agent accumulation in rat brain; assay type: in vivo
Description: Yet another set of in vivo experiments was performed using Dynamic Contrast Enhanced MRI (DCE-MRI) with intravenous injection of Gadolinium contrast agent (Gd-DTPA, Magnetol, MW 547). In these experiments, test rats were treated with 100 kHz alternating electric fields for 72 h, and control rats were not treated with alternating electric fields for the same period of time. After this 72 h period, the alternating electric field was turned off, the rats were anesthetized, and a series of 60 T1w MRI scans (each of the scans having a duration of 28 seconds) was acquired. The gadolinium contrast agent was injected into the rat's tail vein during the 7th of these 60 scans.
The image analysis for each rat included (1) determining a baseline for each voxel by calculating the mean of the first six T1w MRI scans for each voxel (i.e., the scans prior to the injection of the gadolinium); (2) computing voxel by voxel, the percent signal change (i.e., gadolinium accumulation) over time relative to the baseline; (3) segmenting the brain into anterior, middle, and posterior segments; (4) generating for each of the three segments the mean percent signal change with respect to the baseline over all the voxels in the respective segment and then (5) averaging 4 consecutive time points (i.e. 4 scans) together. Finally, the data from all of the rats within any given group were averaged together. […]

[3] = 100 kHz fields 72 h vs sham heat/control, EB i.v., circulated 2 hours, measured as μg EB per g tissue, FIG. 5

Cc1cc(-c2ccc(/N=N/c3ccc4c(S(=O)(=O)O)cc(S(=O)(=O)O)c(N)c4c3O)c(C)c2)ccc1/N=N/c1ccc2c(S(=O)(=O)O)cc(S(=O)(=O)O)c(N)c2c1O [EB, Evans Blue]
average EB accumulation in the rat brain, averaged over all four sections 1-4 (rat brain (BBB) [1]; 100 kHz fields 72 hours vs sham heat/control, p<0.05, FIG. 6): higher accumulation | EB accumulation, more posterior sections (3, 4) (rat brain (BBB) [1]; [3]): smaller increase (that was not statistically significant) | EB accumulation, sections 1, 2 (frontal cerebrum) (rat brain (BBB) [1]; [3]): statistically significant increase

O=C([O-])CN(CCN(CC(=O)[O-])CC(=O)O)CCN(CC(=O)[O-])CC(=O)O.[Gd+3] [contrast agent, Gd-DTPA]
contrast agent accumulation in the brain tissue (percent signal change) (rat brain (BBB) [2]; 100 kHz fields 72 h (n=6) vs control rats (n=3), i.v., FIG. 7): significantly higher | contrast agent accumulation in the brain tissue (percent signal change) after recovery (rat brain (BBB) [2]; 72 hours fields followed by 96 hours without fields (n=7) vs control+96 h (n=3)): not significantly different
